US20060210497A1, “Novel resorcinol derivatives” (Unilever Home & Personal Care USA, Division Of Conopco, Inc., priority 2005, published 2006)

Tests used:
[1] = tested on: human sebocytes; experiment: Sebocyte assay (14C-acetate incorporation, sebocyte lipid synthesis); format: cell-based
Experimental: Sebocyte Assay Procedure:
Secondary cultures of human sebocytes obtained from an adult […] were grown in 96-well tissue culture plates (Packard) until three days post-confluence. Sebocyte growth medium consisted of Clonetics Keratinocyte Basal Medium (KBM) supplemented with 14 ug/ml bovine pituitary extract, 0.4 ug/ml hydrocortisone, 5 ug/ml insulin, 10 ng/ml epidermal growth factor, 1.2×10^−10 M cholera toxin, 100 units/ml penicillin, and 100 ug/ml streptomycin. All cultures were incubated at 37° C. in the presence of 7.5% CO2. Medium was changed three times per week.
On the day of experimentation, the growth medium was removed and the sebocytes washed three times with sterile Dulbecco's Modified Eagle Medium (DMEM; phenol red free). Fresh DMEM was added to each sample (triplicates) with 2-microliters of test agent solubilized in ethanol. Controls consisted of addition of ethanol alone. Each plate was returned to the incubator for 20-hours followed by the addition of ^14C-acetate buffer (5 mM final concentration, 56 mCi/mmol specific activity). Sebocytes were returned to the incubator for 4-hours, after which, each culture was rinsed 3-times with phosphate buffered saline to remove unbound label. Radioactive label remaining in the sebocytes was determined using a Packard TopCount scintillation counter. Statistical significance (p value) was calculated using student's t-test. Phenol Red, a known sebum suppressive agent, was employed as a positive control.

[2] = biological target: Mushroom tyrosinase; experiment: Mushroom tyrosinase assay; format: biochemical; settings: for IC50: L-DOPA 0.5 mM, tyrosinase 0.1 mg/ml, phosphate pH 7.0, room temperature; for potency of tyrosinase inhibition, compared in words: cyclohexyl methyl resorcinol compared with ethyl resorcinol
Experimental: Mushroom Tyrosinase Assay Mushroom tyrosinase inhibition is indicative of reduction in melanin synthesis, thereby showing skin lightening effect. Reagents: • Assay buffer: phosphate (100 mM, pH 7.0) • Mushroom tyrosinase stock solution (Sigma-Aldrich, Batch # 023K7024): 0.2 mg/ml in assay buffer • L-DOPA stock solution: 1.05 mM in assay buffer • Test compound stock solutions: 10 mM in DMSO Assay Conditions: • Mushroom tyrosinase: 0.1 mg/ml in assay buffer • L-DOPA: 0.5 mM in assay buffer • Test compounds: various concentrations, 2.5% final [DMSO] • Temperature: room temperature Procedure: […] The reaction is started by adding mushroom tyrosinase (100 uL of stock solution) into each well and the absorbance is monitored at 490 nm over a time period of 30 sec to 2 min. The initial reaction velocity in the presence or absence of test compounds is calculated ([…] nm/ min) and the % inhibition of test compounds is calculated using the following equation: [formula] where v0 is the initial reaction velocity in the absence of compound, v is the slope of the reaction in the absence of mushroom tyrosinase and vi is the slope of the reaction in the presence of test compound. The data (% inhibition vs. [test compound]) is fitted using data analysis software and the concentration of test compound at 50% inhibition (IC50) is determined from the fitted data. The IC50 value refers to the skin lightener concentration that results in 50% tyrosinase inhibition relative to the control (with a goal being obtaining maximum tyrosinase inhibition at minimum concentration).

SMILES: O=S1(=O)OC(c2ccc(O)cc2)(c2ccc(O)cc2)c2ccccc21 [Phenol Red, reference compound]
- activity at 28 µM ([1]; Homo sapiens, 28 uM test agent, 20 h incubation then 4 h 14C-acetate label, read-out: % of Control (ethanol)): 84.4%
- activity at 280 µM ([1]; Homo sapiens, 280 uM test agent, 20 h incubation then 4 h 14C-acetate label, read-out: % of Control (ethanol)): 45.9%

SMILES: CCc1ccc(O)cc1O [4-ethyl resorcinol (ER), 4-ethyl resorcinol, reference compound]
- IC50 [2]: 1100 nM
- potency of tyrosinase inhibition, compared in words [2]: comparable potency

SMILES: Oc1ccc(CC2CCCCC2)c(O)c1 [CHMR, 4-cyclohexylmethyl resorcinol]
- IC50 [2]: 950 nM
- potency of tyrosinase inhibition, compared in words [2]: comparable potency
- activity at 10 µM ([1]; Homo sapiens, 10 uM test agent, 20 h incubation then 4 h 14C-acetate label, read-out: % of Control (ethanol)): 98.9%
- activity at 100 µM ([1]; Homo sapiens, 100 uM test agent, 20 h incubation then 4 h 14C-acetate label, read-out: % of Control (ethanol)): 69.3%
- reduction in sebocyte lipid synthesis as compared to the vehicle control ([1]; concentration on the order of about 100 micro-molar): statistically significant reduction
